Reference: paper PMC12621200, “Giving an Enzyme Scissors: Serotonin Derivatives as Potent Organocatalytic Switches for DNA Repair Enzyme OGG1” (Journal of Medicinal Chemistry, 2025)

Molecular target: T1, OGG1 (Homo sapiens, UniProt O15527)
T1 construct: made in house
Experiment: Biochemical fluorescence (fluorophore-quencher) assay of OGG1 incision rate, 8-oxoA substrate
Settings: not given; call rule not given here

T1 sequence (O15527 whole entry): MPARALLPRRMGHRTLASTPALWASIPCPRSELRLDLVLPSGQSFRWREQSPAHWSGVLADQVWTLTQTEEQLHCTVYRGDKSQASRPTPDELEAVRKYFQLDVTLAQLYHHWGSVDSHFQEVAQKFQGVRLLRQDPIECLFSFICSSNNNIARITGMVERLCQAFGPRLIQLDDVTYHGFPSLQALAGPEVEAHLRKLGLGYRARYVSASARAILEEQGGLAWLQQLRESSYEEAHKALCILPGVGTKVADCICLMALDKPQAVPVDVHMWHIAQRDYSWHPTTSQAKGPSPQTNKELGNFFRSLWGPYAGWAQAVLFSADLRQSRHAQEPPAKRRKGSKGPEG

Structure (SMILES) | OGG1 activation, SAR result in words
NCCc1c(-c2cncc(F)c2)[nH]c2ccc(O)cc12 [Compound 41, 3-(2-Aminoethyl)-2-(5-fluoropyridin-3-yl)-1H-indol-5-ol] | did not significantly affect potency
Cn1c(-c2cccnc2)c(CCN)c2cc(O)ccc21 [Compound 48, 3-(2-Aminoethyl)-1-methyl-2-(pyridin-3-yl)-1H-indol-5-ol] | attenuated activity
NCCc1[nH]c2cc(F)c(O)cc2c1-c1cccnc1 [Compound 52, 2-(2-Aminoethyl)-6-fluoro-3-(pyridin-3-yl)-1H-indol-5-ol] | some residual activity
NCCc1[nH]c2ccc(O)cc2c1-c1cncnc1 [Compound 53, 2-(2-Aminoethyl)-3-(pyrimidin-5-yl)-1H-indol-5-ol] | some residual activity
CN(C)Cc1c(-c2ccccc2)[nH]c2ccccc12 [TH12166] | inhibited activity

Same assay, conditions: biochemical assay of virtual screening hits (NCI samples), Table S1

Structure (SMILES) | AC50 (μM)
O=C(O)c1cccc(NC(C(=O)c2ccccc2)c2ccccc2)c1 (stereo not drawn) [NSC 4232] | inactive
Cn1c(=O)c2[nH]c(C3CCCCC3)nc2n(C)c1=O [NSC 14383] | inactive
Cc1ccc(NC(C(=O)c2ccccc2)c2ccccc2)cc1 (stereo not drawn) [NSC 26933] | inactive
Cl.NC(=O)C1CCCN(Cc2c[nH]c3ccccc23)C1 (stereo not drawn) [NSC 32474] | inactive
O=C(c1ccccc1)[C@H](Nc1ccc2ccccc2c1)c1ccccc1 [NSC 34924] | inactive
O=C1OC(c2c[nH]c3ccccc23)c2ccccc21 (stereo not drawn) [NSC 42087] | inactive
CC(N)Cc1c[nH]c2ccc(Cl)cc12.Cl (stereo not drawn) [NSC 50457] | inactive
FC(F)(F)c1nc(Nc2ccccc2)c2[nH]cnc2n1 [NSC 56385] | inactive
O=c1cc(Nc2ccc(Cl)c(Cl)c2)[nH]c(=O)[nH]1 [NSC 62573] | inactive
CC(N)Cc1c[nH]c2ccccc12 (stereo not drawn) [NSC 97069] | inactive
O=C1CCCCC1C(Nc1ccccc1)c1ccccc1 (stereo not drawn) [NSC 123043] | inactive
NC(=O)C(O)c1c[nH]c2ccccc12 (stereo not drawn) [NSC 128331] | inactive
Cc1[nH]c2ccccc2c(=O)c1CNCc1ccccc1 [NSC 133478] | inactive
O=C1Nc2ccccc2C1=NCCc1c[nH]c2ccccc12 [NSC 136042] | inactive
OC1(Cc2ccccn2)c2ccccc2CC1c1ccccc1 (stereo not drawn) [NSC 147943] | inactive
CCOc1ccccc1C1NC(=O)c2ccccc2N1 (stereo not drawn) [NSC 158389] | inactive
O=C1NC(c2ccccc2Cl)Nc2ccccc21 (stereo not drawn) [NSC 175633] | inactive
CC1(C)CC(=O)C2=C(C1)Nc1ccc(Cl)cc1NC2c1ccccc1 (stereo not drawn) [NSC 186216] | inactive
O=C1CCCC2=C1C(c1ccncc1)Nc1ccccc1N2 (stereo not drawn) [NSC 186218] | inactive

Structure (SMILES) | AC50 (μM)
Cc1ccc2c(c1)Nc1ccccc1C(=O)N2 [NSC 202050] | inactive
Cl.N[C@@H](Cc1c[nH]c2ccccc12)C(=O)OCc1ccccc1 [NSC 202376] | inactive
Cc1nc(N)[nH]c(=O)c1CCCNc1cccc(C(F)(F)F)c1 [NSC 210448] | inactive
O=c1[nH]cc(Cc2cccc(OCc3ccccc3)c2)c(=O)[nH]1 [NSC 210777] | inactive
NC(=O)C1CCCN(C(=O)Nc2ccccc2F)C1 (stereo not drawn) [NSC 213798] | inactive
COc1cc(OC)c(NC(=O)CC2SC(N)=NC2=O)cc1Cl (stereo not drawn) [NSC 247010] | inactive
CC1=CC2C(c3ccccc3)Nc3ccccc3N2C1=O (stereo not drawn) [NSC 263759] | inactive
O=C1c2ccccc2C(O)N1CCc1c[nH]c2ccccc12 (stereo not drawn) [NSC 338155] | inactive
CNC1NC(=O)c2ccccc2N1Cc1ccc(F)cc1 (stereo not drawn) [NSC 364164] | inactive
CCOC(=O)c1ccc2c(c1)NCc1cccc(OC)c1O2 [NSC 364889] | inactive
Cl.NCCc1c[nH]c2ccccc12 [NSC 522258] | inactive
CC1CC2=C(C(=O)O1)C(c1ccccc1)Nc1ccccc1N2 (stereo not drawn) [NSC 637579] | inactive
CC(=O)C1CC(C)=CCC12C(=O)Nc1ccccc12 (stereo not drawn) [NSC 642717] | inactive
O=C1Nc2ccccc2C12CCNC2Cc1ccccc1 (stereo not drawn) [NSC 643518] | weak
c1ccc(C2Nc3ccccc3C3OCCCC23)cc1 (stereo not drawn) [NSC 645796] | inactive
COc1ccccc1N1C(=O)CSC1c1c[nH]c2ccccc12 (stereo not drawn) [NSC 655348] | inactive
CC(=O)N1C(C(=O)NC2CCCCC2)CSC1c1ccccc1 (stereo not drawn) [NSC 669300] | inactive
O=C(NCCc1c(-c2ccccc2)[nH]c2ccccc12)C(F)(F)F [NSC 674639] | inactive
CN(C)Cc1c(-c2ccccc2)[nH]c2ccccc12 [TH12166] | inactive

Same assay, conditions: concentration giving 50% of the incision rate of OGG1 with APE1 (2 nM) control

Structure (SMILES) | AC50 (CI95%)
Cn1c(-c2cccnc2)c(CCN)c2cc(O)ccc21 [Compound 48, 3-(2-Aminoethyl)-1-methyl-2-(pyridin-3-yl)-1H-indol-5-ol] | inactive
NCCc1cncc(-c2cc3cc(O)ccc3[nH]2)c1 [Compound 49, 2-(5-(2-Aminoethyl)-pyridin-3-yl)-1H-indol-5-ol] | inactive
NCCc1[nH]c2ccc(O)cc2c1-c1cccnc1 [Compound 51, 2-(2-Aminoethyl)-3-(pyridin-3-yl)-1H-indol-5-ol] | inactive

Same assay, conditions: concentration giving 50% of the incision rate of OGG1 with APE1 (2 nM) control; read-out: AC50 (CI95%)

Structure (SMILES) | AC50
NCCc1c(-c2cncc(F)c2)[nH]c2ccc(O)cc12 [Compound 41, 3-(2-Aminoethyl)-2-(5-fluoropyridin-3-yl)-1H-indol-5-ol] | 0.74 µM
CNCCc1c(-c2cccnc2)[nH]c2ccc(O)cc12 [Compound 46, 3-(2-(Methylamino)-ethyl)-2-(pyridin-3-yl)-1H-indol-5-ol] | 0.29 µM
OCCc1c(-c2cccnc2)[nH]c2ccc(O)cc12 [Compound 47, 3-(2-Hydroxyethyl)-2-(pyridin-3-yl)-1H-indol-5-ol] | 8.7 µM
NCCc1[nH]c2ccccc2c1-c1cccnc1 [Compound 50, 2-(3-(Pyridin-3-yl)-1H-indol-2-yl)-ethan-1-amine] | 28 µM
NCCc1[nH]c2cc(F)c(O)cc2c1-c1cccnc1 [Compound 52, 2-(2-Aminoethyl)-6-fluoro-3-(pyridin-3-yl)-1H-indol-5-ol] | 8.5 µM
NCCc1[nH]c2ccc(O)cc2c1-c1cncnc1 [Compound 53, 2-(2-Aminoethyl)-3-(pyrimidin-5-yl)-1H-indol-5-ol] | 12 µM

Same assay, conditions: ethanol derivative versus amine 30

Structure (SMILES) | decrease of activity
OCCc1c(-c2cccnc2)[nH]c2ccc(O)cc12 [Compound 47, 3-(2-Hydroxyethyl)-2-(pyridin-3-yl)-1H-indol-5-ol] | ~10 fold

Same assay, conditions: inhibition of OGG1

Structure (SMILES) | IC50
CN(C)Cc1c(-c2ccccc2)[nH]c2ccccc12 [TH12166] | 15.5 µM

Molecular target: T2, K249A mutant OGG1 (Homo sapiens, UniProt O15527, K249A)
T2 construct: made in house
T2 sequence (O15527 whole entry K249A): as the sequence (O15527 whole entry) above, with K249A counted along it
Experiment: AP-lyase assay on radiolabeled AP-site-containing oligonucleotide (PAGE)
Type: biochemical
Settings: Figure S8

Structure (SMILES) | restoration of AP-lyase activity of Lys249Ala mutant
NCCc1c(-c2cncc(F)c2)[nH]c2ccc(O)cc12 [Compound 41, 3-(2-Aminoethyl)-2-(5-fluoropyridin-3-yl)-1H-indol-5-ol] | failed to restore AP-lyase activity

Molecular target: T3, NUDT5 (Homo sapiens, UniProt Q9UKK9)
T3 construct: made in house
Experiment: not given
Design: method as in Hank et al. 1 and Kehler et al. 2
Settings: reference compound; ref Hank et al. 1 and Kehler et al. 2; cited from earlier work

Structure (SMILES) | Reference inhibition
Cn1c(=O)c2c(nc(N3CCNCC3)n2Cc2nnc(-c3ccc(Cl)c(Cl)c3)o2)n(C)c1=O [TH5427] | 99%

Molecular target: T4, NUDT15 (Homo sapiens, UniProt Q9NV35)
T4 construct: made in house
T4 sequence (Q9NV35 1-164): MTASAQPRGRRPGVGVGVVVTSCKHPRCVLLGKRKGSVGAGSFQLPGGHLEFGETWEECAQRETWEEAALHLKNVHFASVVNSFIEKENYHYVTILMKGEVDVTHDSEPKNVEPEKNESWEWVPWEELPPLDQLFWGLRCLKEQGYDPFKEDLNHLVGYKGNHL
Experiment: not given
Design: method as in Hank et al. 1 and Kehler et al. 2
Settings: reference compound; ref Hank et al. 1 and Kehler et al. 2; cited from earlier work

Structure (SMILES) | Reference inhibition
O=C(c1ccc2[nH]ccc2c1)N1CCN(S(=O)(=O)c2ccc3[nH]c(=O)oc3c2)CC1 [TH1760] | 96%
